Results on 22 compounds are retold here after patent publication US7507728B2, “Halogen substituted imidazol[1,5-A][1,2,4]triazolo[1,5-D][1,4]benzodiazepine derivatives” (priority 2004, dated 2009).

For assay [1], the target named is T1, GABA A receptor α5β3γ2 (hα5) (Homo sapiens, UniProt P18507+P31644).
T1 construct: expressed in transfected cells; host or cells: HEK293, transiently transfected; membranes
The experiment in a line: [3H]flumazenil competition binding, human GABA A α5β3γ2. The procedure:
(§1) The affinity of compounds at GABA A receptor subtypes was measured by competition for [^3H]flumazenil (85 Ci/mmol; Roche) binding to HEK293 cells expressing rat (stably transfected) or human (transiently transfected) receptors of composition α1β3γ2, α2β3γ2, α3β3γ2 and α5β3γ2.
(§2) Cell pellets were suspended in Krebs-tris buffer (4.8 mM KCl, 1.2 mM CaCl2, 1.2 mM MgCl2, 120 mM NaCl, 15 mM Tris; pH 7.5; binding assay buffer), homogenized by polytron for ca. 20 sec on ice and centrifuged for 60 min at 4° C. (50000 g; Sorvall, rotor: SM24=20000 rpm). The cell pellets were resuspended in Krebs-tris buffer and homogenized by polytron for ca. 15 sec on ice. Protein was measured (Bradford method, Bio-Rad) and aliquots of 1 mL were prepared and stored at −80° C.
(§3) Radioligand binding assays were carried out in a volume of 200 μL (96-well plates) which contained 100 μL of cell memebranes, [^3H]flumazenil at a concentration of 1 nM for α1, α2, α3 subunits and 0.5 nM for α5 subunits and the test compound in the range of 10^−10−3×10^−6 M. Nonspecific binding was defined by 10^−5 M diazepam and typically represented less than 5% of the total binding. Assays were incubated to equilibrium for 1 hour at 4° C. and harvested onto GF/C uni-filters (Packard) by filtration using a Packard harvester and washing with ice-cold wash buffer (50 mM Tris; pH 7.5). After drying, filter-retained radioactivity was detected by liquid scintillation counting. Ki values were calculated using Excel-Fit (Microsoft) and are the means of two determinations.

Assay [2] has as its target T2, GABA A receptor α1β3γ2 (hα1) (Homo sapiens, UniProt P14867+P18507).
T2 construct: expressed in transfected cells; host or cells: HEK293, transiently transfected; membranes
The experiment in a line: [3H]flumazenil competition binding, human GABA A α1β3γ2. The procedure: as §1, §2, §3

Assay [3] concerns the target T3, GABA A receptor α3β3γ2 (hα3) (Homo sapiens, UniProt P18507+P34903).
T3 construct: expressed in transfected cells; host or cells: HEK293, transiently transfected; membranes
Description: [3H]flumazenil competition binding, human GABA A α3β3γ2. The procedure:
as §1, §2, §3

For assay [4], the target named is T4, GABA A receptor α2β3γ2 (hα2) (Homo sapiens, UniProt P18507+P47869).
T4 construct: expressed in transfected cells; host or cells: HEK293, transiently transfected; membranes
The experiment in a line: [3H]flumazenil competition binding, human GABA A α2β3γ2. The procedure:
as §1, §2, §3

Where [5] appears, read: HEK293 cells transiently transfected, 0.5 nM [3H]flumazenil, mean of two determinations, read-out: Ki[nM] hα5.
Setting [6] is: HEK293 cells transiently transfected, 1 nM [3H]flumazenil, mean of two determinations, read-out: Ki[nM] hα1.
The mark [7] stands for this setting: HEK293 cells transiently transfected, 1 nM [3H]flumazenil, mean of two determinations, read-out: Ki[nM] hα3.
[8] abbreviates: HEK293 cells transiently transfected, 1 nM [3H]flumazenil, mean of two determinations, read-out: Ki[nM] hα2.

SMILES strings stand for the structures. Like-named read-outs stand apart in the source and are kept apart here.

For the compound `Clc1ncn2c1Cn1ncnc1-c1cc(NC3CC3)ccc1-2` [Example 72, 10-chloro-3-cyclopropylamino-9H-imidazo[1,5-a][1,2,4]triazolo[1,5-d][1,4]benzodiazepine], the Ki (in general, the dissociation constant of the complex between target and ligand, obtained from inhibition or displacement) worked out at 2.2 nM in assay [1] (setting [5]), 21 nM in assay [2] (setting [6]), 78.8 nM in assay [3] and 93.7 nM in assay [4].

On to `Clc1ncn2c1Cn1ncnc1-c1cc(C3CC3)ccc1-2` [Example 30, 10-Chloro-3-cyclopropyl-9H-imidazo[1,5-a][1,2,4]triazolo[1,5-d][1,4]benzodiazepine], for which the Ki came to 1.2 nM in assay [1] (setting [5]), 28.7 nM in assay [2] (setting [6]), 20.4 nM in assay [3] and 18.7 nM in assay [4].

For `FC(F)c1ccc2c(c1)-c1ncnn1Cc1c(Cl)ncn1-2` [Example 32, 10-Chloro-3-difluoromethyl-9H-imidazo[1,5-a][1,2,4]triazolo[1,5-d][1,4]benzodiazepine], the Ki in assay [1] (setting [5]) turned out to be 1.1 nM; in assay [2] (setting [6]), 20.5 nM; in assay [3], 16 nM; in assay [4], 40.1 nM.

In the case of `FCCOc1ccc2c(c1)-c1ncnn1Cc1c(Cl)ncn1-2` [Example 7, 10-Chloro-3-(2-fluoro-ethoxy)-9H-imidazo[1,5-a][1,2,4]triazolo[1,5-d][1,4]benzodiazepine], the Ki is 1.3 nM in assay [1] (setting [5]), 18.5 nM in assay [2] (setting [6]), 20.7 nM in assay [3] and 25 nM in assay [4].

As to `COc1ccc2c(c1)-c1ncnn1Cc1c(Cl)ncn1-2` [Example 3, 10-Chloro-3-methoxy-9H-imidazo[1,5-a][1,2,4]triazolo[1,5-d][1,4]benzodiazepine], the Ki is 0.8 nM in assay [1] (setting [5]), 12.2 nM in assay [2] (setting [6]), 11.7 nM in assay [3] and 17.2 nM in assay [4].

As for `Fc1ccc2c(c1)-c1ncnn1Cc1c(Br)ncn1-2` [Example 47, 10-Bromo-3-fluoro-9H-imidazo[1,5-a][1,2,4]triazolo[1,5-d][1,4]benzodiazepine], the Ki amounted to 0.5 nM in assay [1] (setting [5]), 2.1 nM in assay [2] (setting [6]), 3.9 nM in assay [3] and 3.7 nM in assay [4].

As to `C=COc1ccc2c(c1)-c1ncnn1Cc1c(Cl)ncn1-2` [Example 10, 10-Chloro-3-vinyloxy-9H-imidazo[1,5-a][1,2,4]triazolo[1,5-d][1,4]benzodiazepine], the Ki in assay [1] (setting [5]) is 1.2 nM; in assay [2] (setting [6]), 22.4 nM; in assay [3] it was 11.4 nM; in assay [4], 25.6 nM.

On to `Brc1ncn2c1Cn1ncnc1-c1ccccc1-2` [Example 46, 10-Bromo-9H-imidazo[1,5-a][1,2,4]triazolo[1,5-d][1,4]benzodiazepine], for which the Ki amounted to 0.2 nM in assay [1] (setting [5]), 2.4 nM in assay [2] (setting [6]), 0.6 nM in assay [3] and 0.8 nM in assay [4].

For the compound `O=C(Nc1ccc2c(c1)-c1ncnn1Cc1c(Cl)ncn1-2)C1CC1` [Example 50, 3-(Cyclopropanecarbonyl-amino)-10-chloro-9H-imidazo[1,5-a][1,2,4]triazolo[1,5-d][1,4]benzodiazepine], the inhibition constant (Ki) in assay [1] (setting [5]) was 15.8 nM.

As for `CCCc1ccc2c(c1)-c1ncnn1Cc1c(Cl)ncn1-2` [Example 64, 10-Chloro-3-propyl-9H-imidazo[1,5-a][1,2,4]triazolo[1,5-d][1,4]benzodiazepine], the Ki in assay [1] (setting [5]) was found to be 7 nM; in assay [2] (setting [6]) it was 58.8 nM; in assay [3] (setting [7]), 187 nM; in assay [4] (setting [8]), 136 nM.

As to `CCCCc1ccc2c(c1)-c1ncnn1Cc1c(Cl)ncn1-2` [Example 65, 3-Butyl-10-chloro-9H-imidazo[1,5-a][1,2,4]triazolo[1,5-d][1,4]benzodiazepine], the Ki in assay [1] was found to be 9.6 nM; in assay [2], 39.2 nM; in assay [3] (setting [7]), 115 nM; in assay [4] (setting [8]), 106 nM.

As for `Clc1ncn2c1Cn1ncnc1-c1cc(-c3cccnc3)ccc1-2` [Example 57, 10-Chloro-3-(pyridin-3-yl)-9H-imidazo[1,5-a][1,2,4]triazolo[1,5-d][1,4]benzodiazepine], the Ki in assay [1] (setting [5]) was 6.7 nM; in assay [2] (setting [6]) it was 9.4 nM; in assay [3], 21.7 nM; in assay [4], 33.9 nM.

For `Clc1ccc2c(c1)-c1ncnn1Cc1c(I)ncn1-2` [Example 48, 3-Chloro-10-iodo-9H-imidazo[1,5-a][1,2,4]triazolo[1,5-d][1,4]benzodiazepine], the Ki in assay [1] (setting [5]) was 1.4 nM; in assay [2] (setting [6]), 9.2 nM; in assay [3], 11.3 nM; in assay [4], 14.7 nM.

In the case of `FC(F)COc1ccc2c(c1)-c1ncnn1Cc1c(Cl)ncn1-2` [Example 8, 10-Chloro-3-(2,2-difluoro-ethoxy)-9H-imidazo[1,5-a][1,2,4]triazolo[1,5-d][1,4]benzodiazepine], the Ki in assay [1] (setting [5]) amounted to 2 nM; in assay [2] (setting [6]), 22.1 nM; in assay [3], 24.4 nM; in assay [4] it was 29.4 nM.

Consider `CNc1ccc2c(c1)-c1ncnn1Cc1c(Cl)ncn1-2` [Example 12, 10-Chloro-3-methylamino-9H-imidazo[1,5-a][1,2,4]triazolo[1,5-d][1,4]benzodiazepine], for which the Ki in assay [1] (setting [5]) was found to be 1.8 nM; in assay [2] (setting [6]), 5.9 nM; in assay [3], 8 nM; in assay [4] it was 15.7 nM.

On to `COC(=O)c1ccc2c(c1)-c1ncnn1Cc1c(Cl)ncn1-2` [Example 69, 10-Chloro-3-(methoxy-carbonyl)-9H-imidazo[1,5-a][1,2,4]triazolo[1,5-d][1,4]benzodiazepine], for which the Ki amounted to 1 nM in assay [1] (setting [5]), 7.5 nM in assay [2] (setting [6]), 7.5 nM in assay [3] and 11.6 nM in assay [4].

Take `C=C=Cc1ccc2c(c1)-c1ncnn1Cc1c(Cl)ncn1-2` [Example 70, 10-Chloro-3-(propa-1,2-dienyl)-9H-imidazo[1,5-a][1,2,4]triazolo[1,5-d][1,4]benzodiazepine]: the Ki in assay [1] (setting [5]) came out at 3.2 nM; in assay [2] (setting [6]), 26.9 nM; in assay [3], 30.7 nM; in assay [4], 30.3 nM.

On to `Clc1ncn2c1Cn1ncnc1-c1cc(Br)ccc1-2` [Example 21, 3-Bromo-10-chloro-9H-imidazo[1,5-a][1,2,4]triazolo[1,5-d][1,4]benzodiazepine], for which the Ki in assay [1] (setting [5]) was found to be 1.4 nM; in assay [2] (setting [6]), 33 nM; in assay [3] (setting [7]), 8.8 nM; in assay [4] (setting [8]) it was 24.1 nM.

For `C=Cc1ccc2c(c1)-c1ncnn1Cc1c(Cl)ncn1-2` [Example 66, 10-Chloro-3-vinyl-9H-imidazo[1,5-a][1,2,4]triazolo[1,5-d][1,4]benzodiazepine], the Ki in assay [1] (setting [5]) came out at 1.4 nM; in assay [2] (setting [6]), 20.6 nM; in assay [3] (setting [7]), 16.8 nM; in assay [4] (setting [8]), 17.5 nM.

Consider `Fc1ccc2c(c1)-c1ncnn1Cc1c(Cl)ncn1-2` [Example 2, 10-Chloro-3-fluoro-9H-imidazo[1,5-a][1,2,4]triazolo[1,5-d][1,4]benzodiazepine], for which the Ki in assay [1] (setting [5]) stood at 0.3 nM; in assay [2] (setting [6]), 0.7 nM; in assay [3], 0.78 nM; in assay [4], 1.2 nM.

As to `Clc1ncn2c1Cn1ncnc1-c1ccccc1-2` [Example 1, 10-Chloro-9H-imidazo[1,5-a][1,2,4]triazolo[1,5-d][1,4]benzodiazepine], the Ki in assay [1] (setting [5]) was found to be 0.3 nM; in assay [2] (setting [6]), 3.8 nM; in assay [3] it was 0.7 nM; in assay [4] it was 1.5 nM.

`Cc1ccc2c(c1)-c1ncnn1Cc1c(Cl)ncn1-2` [Example 22, 10-Chloro-3-methyl-9H-imidazo[1,5-a][1,2,4]triazolo[1,5-d][1,4]benzodiazepine]: the Ki stood at 1.8 nM in assay [1] (setting [5]), 19.6 nM in assay [2] (setting [6]), 21.4 nM in assay [3] and 40.5 nM in assay [4].
